What is called IC50 is the concentration needed to halve the response being measured.

Chain of catalytic domain 2 (CD2) of HDAC6 (Q9UBN7 482-800): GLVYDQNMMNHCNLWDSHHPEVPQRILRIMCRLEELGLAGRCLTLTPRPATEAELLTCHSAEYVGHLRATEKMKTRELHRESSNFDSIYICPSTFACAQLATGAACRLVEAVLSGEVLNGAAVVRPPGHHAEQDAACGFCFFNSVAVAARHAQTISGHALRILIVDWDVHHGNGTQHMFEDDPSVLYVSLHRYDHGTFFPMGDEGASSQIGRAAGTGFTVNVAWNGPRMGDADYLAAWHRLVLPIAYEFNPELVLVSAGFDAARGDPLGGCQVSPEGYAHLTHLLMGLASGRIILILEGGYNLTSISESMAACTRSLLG

This experiment addresses catalytic domain 2 (CD2) of HDAC6 (Homo sapiens (Human), UniProt Q9UBN7). In words: Cellular target engagement assay - NanoBRET. Type of experiment: cell-based. Particulars: NanoLuc-HDAC6(CD2) in HEK293T cells, 2 hours, read-out: IC50 (HDAC6(CD2) interaction).
Regarding `O=C(CO)NCc1ccc(C(=O)CSc2nc3cc(Cl)cnc3[nH]2)s1` [Example 166, N-((5-(2-((6-chloro-3H-imidazo[4,5-b]pyridin-2-yl)thio)acetyl)thiophen-2-yl)methyl)-2-hydroxyacetamide], the half-maximal inhibitory concentration (IC50) lay in the range of 1000 to 10000 nM.

With `COc1ccc2oc(SCC(=O)c3ccc(CNC(=O)CO)s3)nc2c1` [Example 167, 2-hydroxy-N-((5-(2-((5-methoxybenzo[d]oxazol-2-yl)thio)acetyl)thiophen-2-yl)methyl)acetamide], the IC50 lay within 1000 to 10000 nM.

In the case of `COc1cccc2oc(SCC(=O)c3ccc(CNC(=O)CO)s3)nc12` [Example 168, 2-hydroxy-N-((5-(2-((4-methoxybenzo[d]oxazol-2-yl)thio)acetyl)thiophen-2-yl)methyl)acetamide], the IC50 fell in the range of 1000 to 10000 nM.

For the molecule `Cn1c(SCC(=O)c2ccc(CNC(=O)CO)s2)nc2ccccc21` [Example 169, 2-hydroxy-N-((5-(2-((1-methyl-1H-benzo[d]imidazol-2-yl)thio)acetyl)thiophen-2-yl)methyl)acetamide], the IC50 is 1000 to 10000 nM.

For the molecule `Cc1ccc2oc(SCC(=O)c3ccc(CNC(=O)CO)s3)nc2c1` [Example 170, 2-hydroxy-N-((5-(2-((5-methylbenzo[d]oxazol-2-yl)thio)acetyl)thiophen-2-yl)methyl)acetamide], the IC50 lay within 1000 to 10000 nM.

For the molecule `COc1ccc2nc(SCC(=O)c3ccc(CNC(=O)CO)s3)[nH]c2n1` [Example 173, 2-hydroxy-N-((5-(2-((5-methoxy-3H-imidazo[4,5-b]pyridin-2-yl)thio)acetyl)thiophen-2-yl)methyl)acetamide], the IC50 was in the range of 1000 to 10000 nM.

As to `O=C(CO)NCc1ccc(C(=O)CSc2nc3cc(Cl)ccc3o2)s1` [Example 174, N-((5-(2-((5-chlorobenzo[d]oxazol-2-yl)thio)acetyl)thiophen-2-yl)methyl)-2-hydroxyacetamide], the IC50 lay within 1000 to 10000 nM.

`O=C(CO)NCc1ccc(C(=O)CSc2nccn3ccnc23)s1` [Example 176, 2-hydroxy-N-((5-(2-(imidazo[1,2-a]pyrazin-8-ylthio)acetyl)thiophen-2-yl)methyl)acetamide]: the IC50 was 1000 to 10000 nM.

In the case of `O=C(CO)NCc1ccc(C(=O)CSc2nccc3ncccc23)s1` [Example 179, N-((5-(2-((1,6-naphthyridin-5-yl)thio)acetyl)thiophen-2-yl)methyl)-2-hydroxyacetamide], the IC50 was 100 to 500 nM.

With `O=C(CO)NCc1ccc(C(=O)CSc2nccc3ccncc23)s1` [Example 180, N-((5-(2-((2,7-naphthyridin-1-yl)thio)acetyl)thiophen-2-yl)methyl)-2-hydroxyacetamide], the IC50 lay within 100 to 500 nM.

Take `O=C(CO)NCc1ccc(C(=O)CSc2nccn3cncc23)s1` [Example 181, 2-hydroxy-N-((5-(2-(imidazo[1,5-a]pyrazin-8-ylthio)acetyl)thiophen-2-yl)methyl)acetamide]: the IC50 fell in the range of 100 to 500 nM.

For `O=C(CO)NCc1ccc(C(=O)CSc2nccn3nccc23)s1` [Example 182, 2-hydroxy-N-((5-(2-(pyrazolo[1,5-a]pyrazin-4-ylthio)acetyl)thiophen-2-yl)methyl)acetamide], the IC50 lay in the range of 1000 to 10000 nM.

With `COc1ccc2nc(C)nc(SCC(=O)c3ccc(CNC(=O)N(C)C)s3)c2c1` [Example 189, 3-((5-(2-((6-methoxy-2-methylquinazolin-4-yl)thio)acetyl)thiophen-1-yl)methyl)-1,1-dimethylurea], the IC50 lay within 100 to 500 nM.

Consider `COc1cnc2nc(C)nc(SCC(=O)c3ccc(CNC(=O)OC(C)(C)C)s3)c2c1` [Example 190, tert-butyl ((5-(2-((6-methoxy-2-methylpyrido[2,3-d]pyrimidin-4-yl)thio)acetyl)thiophen-2-yl)methyl)carbamate], for which the half-maximal inhibitory concentration (IC50) is 100 to 500 nM.

The values above are taken from patent US20250051319A1 (AUGUSTINE THERAPEUTICS, priority 2021, published 2025).
